Here are results for four sequences from patent US20070128217A1 (priority 2003, published 2007).

The test system of test [1] is antibodies in sera from SARS patients (sera 1a, 1b, 2, 6, 37, 62, London, SARS-yellow, SARS-green). The class given is binding, human. Also noted: Binding of serum 6 to linear peptides of protein X1 of SARS-CoV Urbani / Binding of serum 37 to linear peptides of protein X1 of SARS-CoV Urbani / Binding of serum 6 to looped/cyclic peptide (PEPSCAN-ELISA) / Binding of serum 37 to looped/cyclic peptide (PEPSCAN-ELISA) / Binding of serum 37 to looped/cyclic peptides of protein X1 of SARS-CoV Urbani / Binding of serum 6 to linear peptides of protein X2 / Binding of serum 37 to linear peptides of protein X2 / Binding of serum 37 to looped/cyclic peptides of protein X2 of SARS-CoV Urbani / Binding of serum 6 to linear peptides of protein M of SARS-CoV Urbani / Binding of serum 37 to linear peptides of protein M of SARS-CoV Urbani / Binding of serum 6 to looped/cyclic peptides of protein M of SARS-CoV Urbani / Binding of serum 37 to looped/cyclic peptides of protein M of SARS-CoV Urbani / Binding of serum 6 to linear peptides of protein X3 of SARS-CoV Urbani / Binding of serum 37 to linear peptides of protein X3 of SARS-CoV Urbani / Binding of serum 37 to looped/cyclic peptides of protein X3 of SARS-CoV Urbani / Binding of serum 6 to linear peptides of protein X4 of SARS-CoV Urbani / Binding of serum 37 to linear peptides of protein X4 of SARS-CoV Urbani / Binding of serum 37 to looped/cyclic peptides of protein X4 of SARS-CoV Urbani / Binding of serum 6 to linear peptides of protein X5 of SARS-CoV Urbani / Binding of serum 37 to linear peptides of protein X5 of SARS-CoV Urbani / Binding of serum 37 to looped/cyclic peptides of protein X5 of SARS-CoV Urbani / Binding of serum 6 to linear peptides of protein N of SARS-CoV Urbani / Binding of serum 37 to linear peptides of protein N of SARS-CoV Urbani / Binding of serum 6 to linear peptide (PEPSCAN-ELISA) / Binding of serum 1a to looped/cyclic peptides of protein N of SARS-CoV Urbani / Binding of serum 1b to looped/cyclic peptides of protein N of SARS-CoV Urbani / Binding of serum 2 to looped/cyclic peptides of protein N of SARS-CoV Urbani / Binding of serum 6 to looped/cyclic peptides of protein N of SARS-CoV Urbani / Binding of serum 37 to looped/cyclic peptides of protein N of SARS-CoV Urbani / Binding of serum 62 to looped/cyclic peptides of protein N of SARS-CoV Urbani / Binding of serum London to looped/cyclic peptides of protein N of SARS-CoV Urbani / Binding of serum SARS-green to looped/cyclic peptides of protein N of SARS-CoV Urbani: unit not given here.

Test [2] concerns control sera (pooled serum of ten healthy LUMC hospital workers; commercial negative donor pooled serum from the Dutch bloodbank). The class given is binding, human. Also noted: Binding of Control serum LUMC to linear peptides / Binding of Control serum Blood-bank to linear peptides / Binding of Control serum LUMC to looped peptides / Binding of Control Serum Blood-Bank to Looped peptides / Binding of Control serum LUMC to linear peptides of the protein M of SARS-CoV Urbani / Binding of Control serum Blood-bank to linear peptides of the protein M of SARS-CoV Urbani / Binding of Control serum LUMC to looped peptides of the protein M of SARS-CoV Urbani / Binding of Control Serum Blood-Bank to Looped peptides of the protein M of SARS-CoV Urbani: unit not given here.

In test [3] the test system is rabbit serum obtained by immunizing a rabbit with the SARS-CoV strain Frankfurt 1. The class given is binding. Also noted: Binding of a rabbit serum to linear peptides / Binding of a rabbit serum to looped peptides / Rabbit serum linear peptides / Rabbit serum looped peptides / Binding of a rabbit serum to linear peptides of protein N of SARS-CoV Urbani (Rabbit serum linear peptides) / Binding of a rabbit serum to looped/cyclic peptides of protein N of SARS-CoV Urbani (Rabbit serum looped peptides): unit not given here.

For STQITTDTGIENATF, in test [1], the “Binding of serum 1a to linear peptides of protein X1 of SARS-CoV Urbani” value is 0.5, the “Binding of serum 1a to looped/cyclic peptides of protein X1 of SARS-CoV Urbani” value stood at 0.6, the “Binding of serum 1b to linear peptides of protein X1 of SARS-CoV Urbani” value came out at 0.4 and the “Binding of serum 1b to looped/cyclic peptides of protein X1 of SARS-CoV Urbani” value turned out to be 0.4. For the same sequence, in test [1], the “Binding of serum 2 to linear peptides of protein X1 of SARS-CoV Urbani” value is 0.4, the “Binding of serum 2 to looped/cyclic peptides of protein X1 of SARS-CoV Urbani” value is reported as 0.3, the “Binding of serum 6 to linear peptides of protein X1 of SARS-CoV Urbani” value is 0.5 and the “Binding of serum 6 to looped/cyclic peptides of protein X1 of SARS-CoV Urbani” value is listed as 0.3. Moreover, in test [1], the “Binding of serum 37 to linear peptides of protein X1 of SARS-CoV Urbani” value is listed as 0.6, the “Binding of serum 37 to looped/cyclic peptides of protein X1 of SARS-CoV Urbani” value was 0.6, the “Binding of serum 62 to linear peptides of protein X1 of SARS-CoV Urbani” value was 0.4 and the “Binding of serum 62 to looped/cyclic peptides of protein X1 of SARS-CoV Urbani” value was determined as 0.6. Moreover, in test [1], the “Binding of serum London to linear peptides of protein X1 of SARS-CoV Urbani” value was found to be 0.2, the “Binding of serum London to looped/cyclic peptides of protein X1 of SARS-CoV Urbani” value worked out at 0.2, the “Binding of serum SARS-green to linear peptides of protein X1 of SARS-CoV Urbani” value is on record as 0.3 and the “Binding of serum SARS-green to looped/cyclic peptides of protein X1 of SARS-CoV Urbani” value amounted to 0.4. Also, in test [1], the “Binding of serum SARS-yellow to linear peptides of protein X1 of SARS-CoV Urbani” value came out at 0.2 and the “Binding of serum SARS-yellow to looped/cyclic peptides of protein X1 of SARS-CoV Urbani” value is reported as 0.4. For the same sequence, in test [2], the “Binding of Control Serum Blood-Bank to Looped peptides” value was determined as 0.5, the “Binding of Control serum Blood-bank to linear peptides” value turned out to be 0.5, the “Binding of Control serum LUMC to linear peptides” value worked out at 0.6 and the “Binding of Control serum LUMC to looped peptides” value stood at 0.6. For the same sequence, in test [3], the “Binding of a rabbit serum to linear peptides” value is 0.1 and the “Binding of a rabbit serum to looped peptides” value is reported as 0.7.
For SYFVASFRLFARTRS, in test [1], the “Binding of serum 1a to linear peptides of protein M of SARS-CoV Urbani” value came out at 0.7, the “Binding of serum 1b to linear peptides of protein M of SARS-CoV Urbani” value was found to be 0.6, the “Binding of serum 2 to linear peptides of protein M of SARS-CoV Urbani” value came to 0.5 and the “Binding of serum 6 to linear peptides of protein M of SARS-CoV Urbani” value was determined as 0.5. Besides, in test [1], the “Binding of serum 37 to linear peptides of protein M of SARS-CoV Urbani” value is listed as 0.4, the “Binding of serum 62 to linear peptides of protein M of SARS-CoV Urbani” value is reported as 0.4, the “Binding of serum London to linear peptides of protein M of SARS-CoV Urbani” value was 0.3 and the “Binding of serum SARS-green to linear peptides of protein M of SARS-CoV Urbani” value was determined as 0.4. Also, in test [1], the “Binding of serum SARS-yellow to linear peptides of protein M of SARS-CoV Urbani” value was determined as 0.1; the “Recognition of the peptide by sera of SARS-CoV infected individuals, and form (linear, looped/cyclic) in which it is recognized” value was “recognized in looped/cyclic form”. In addition, in test [2], the “Binding of Control Serum Blood-Bank to Looped peptides of the protein M of SARS-CoV Urbani” value was determined as 1.0, the “Binding of Control serum Blood-bank to linear peptides of the protein M of SARS-CoV Urbani” value stood at 0.6, the “Binding of Control serum LUMC to linear peptides of the protein M of SARS-CoV Urbani” value is recorded as 0.5 and the “Binding of Control serum LUMC to looped peptides of the protein M of SARS-CoV Urbani” value came out at 0.9. Further, in test [3], the “Rabbit serum linear peptides” value came out at 0.2 and the “Rabbit serum looped peptides” value is 0.4.
TAAFRDVLVVLNKRT: in test [1], the “Binding of serum 1a to linear peptides of protein X5 of SARS-CoV Urbani” value is 0.5, the “Binding of serum 1a to looped/cyclic peptides of protein X5 of SARS-CoV Urbani” value worked out at 0.7, the “Binding of serum 1b to linear peptides of protein X5 of SARS-CoV Urbani” value is on record as 0.6 and the “Binding of serum 1b to looped/cyclic peptides of protein X5 of SARS-CoV Urbani” value was 0.6. For the same sequence, in test [1], the “Binding of serum 2 to linear peptides of protein X5 of SARS-CoV Urbani” value is 0.6, the “Binding of serum 2 to looped/cyclic peptides of protein X5 of SARS-CoV Urbani” value is reported as 0.7, the “Binding of serum 6 to linear peptides of protein X5 of SARS-CoV Urbani” value was 0.6 and the “Binding of serum 6 to looped/cyclic peptides of protein X5 of SARS-CoV Urbani” value worked out at 0.9. Moreover, in test [1], the “Binding of serum 37 to linear peptides of protein X5 of SARS-CoV Urbani” value came to 0.5, the “Binding of serum 37 to looped/cyclic peptides of protein X5 of SARS-CoV Urbani” value is recorded as 0.6, the “Binding of serum 62 to linear peptides of protein X5 of SARS-CoV Urbani” value amounted to 0.5 and the “Binding of serum 62 to looped/cyclic peptides of protein X5 of SARS-CoV Urbani” value worked out at 0.6. In addition, in test [1], the “Binding of serum London to linear peptides of protein X5 of SARS-CoV Urbani” value stood at 0.5, the “Binding of serum London to looped/cyclic peptides of protein X5 of SARS-CoV Urbani” value is on record as 1.1, the “Binding of serum SARS-green to linear peptides of protein X5 of SARS-CoV Urbani” value is 0.2 and the “Binding of serum SARS-green to looped/cyclic peptides of protein X5 of SARS-CoV Urbani” value worked out at 0.5. In test [1], the “Binding of serum SARS-yellow to linear peptides of protein X5 of SARS-CoV Urbani” value was 0.7 and the “Binding of serum SARS-yellow to looped/cyclic peptides of protein X5 of SARS-CoV Urbani” value is given as 0.5. In addition, in test [2], the “Binding of Control Serum Blood-Bank to Looped peptides” value is given as 0.8, the “Binding of Control serum Blood-bank to linear peptides” value is on record as 0.7, the “Binding of Control serum LUMC to linear peptides” value is reported as 0.8 and the “Binding of Control serum LUMC to looped peptides” value was found to be 0.6. Further, in test [3], the “Rabbit serum linear peptides” value is 0.3 and the “Rabbit serum looped peptides” value was determined as 0.4.
For TAFQHQNSKKTTKLV, in test [1], the “Binding of serum 1a to linear peptides of protein X2” value came out at 0.7, the “Binding of serum 1a to looped/cyclic peptides of protein X2 of SARS-CoV Urbani” value was 0.3, the “Binding of serum 1b to linear peptides of protein X2” value was 0.5 and the “Binding of serum 1b to looped/cyclic peptides of protein X2 of SARS-CoV Urbani” value was determined as 0.3. In test [1], the “Binding of serum 2 to linear peptides of protein X2” value is on record as 0.5, the “Binding of serum 2 to looped/cyclic peptides of protein X2 of SARS-CoV Urbani” value was 0.2, the “Binding of serum 6 to linear peptides of protein X2” value is reported as 0.7 and the “Binding of serum 6 to looped/cyclic peptides of protein X2 of SARS-CoV Urbani” value was 0.3. For the same sequence, in test [1], the “Binding of serum 37 to linear peptides of protein X2” value worked out at 0.7, the “Binding of serum 37 to looped/cyclic peptides of protein X2 of SARS-CoV Urbani” value is 0.2, the “Binding of serum 62 to linear peptides of protein X2” value is on record as 0.4 and the “Binding of serum 62 to looped/cyclic peptides of protein X2 of SARS-CoV Urbani” value stood at 0.4. In addition, in test [1], the “Binding of serum London to linear peptides of protein X2” value came out at 0.4, the “Binding of serum London to looped/cyclic peptides of protein X2 of SARS-CoV Urbani” value is given as 0.2, the “Binding of serum SARS-green to linear peptides of protein X2” value came out at 0.1 and the “Binding of serum SARS-green to looped/cyclic peptides of protein X2 of SARS-CoV Urbani” value is 0.1. Also, in test [1], the “Binding of serum SARS-yellow to linear peptides of protein X2” value came out at 0.8 and the “Binding of serum SARS-yellow to looped/cyclic peptides of protein X2 of SARS-CoV Urbani” value is 0.3. In addition, in test [2], the “Binding of Control Serum Blood-Bank to Looped peptides” value turned out to be 0.4, the “Binding of Control serum Blood-bank to linear peptides” value came to 0.6, the “Binding of Control serum LUMC to linear peptides” value worked out at 0.9 and the “Binding of Control serum LUMC to looped peptides” value is on record as 0.4. Moreover, the “Recognition of the peptide by the rabbit serum” value in test [3] is given as “recognized”.
